Measurements as given in patent US8093265B2, “Bicycloheteroaryl compounds as P2X7 modulators and uses thereof” (Renovis, Inc., priority 2007, dated 2012).

Biological target: T1, P2X7 receptor (Homo sapiens, UniProt Q99572)
T1 construct: host or cells: THP-1 cells differentiated with LPS and IFN-γ
T1 sequence (Q99572 1-595): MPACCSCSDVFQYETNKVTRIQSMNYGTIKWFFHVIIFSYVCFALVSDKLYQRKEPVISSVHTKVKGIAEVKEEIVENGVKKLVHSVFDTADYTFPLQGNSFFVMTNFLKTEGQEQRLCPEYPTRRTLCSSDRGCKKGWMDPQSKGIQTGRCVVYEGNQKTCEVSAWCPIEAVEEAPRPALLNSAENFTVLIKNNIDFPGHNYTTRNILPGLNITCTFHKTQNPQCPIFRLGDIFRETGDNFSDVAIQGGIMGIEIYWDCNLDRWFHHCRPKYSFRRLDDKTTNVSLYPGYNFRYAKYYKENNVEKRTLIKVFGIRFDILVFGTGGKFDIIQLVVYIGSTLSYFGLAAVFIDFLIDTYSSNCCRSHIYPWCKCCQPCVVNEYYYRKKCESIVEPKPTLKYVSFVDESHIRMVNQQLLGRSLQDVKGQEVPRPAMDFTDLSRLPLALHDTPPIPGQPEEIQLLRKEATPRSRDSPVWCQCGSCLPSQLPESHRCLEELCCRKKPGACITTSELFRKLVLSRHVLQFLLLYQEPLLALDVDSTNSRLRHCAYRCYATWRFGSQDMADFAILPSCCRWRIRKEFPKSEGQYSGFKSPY
Experiment: IL-1β release assay in differentiated THP-1 cells (Example 9)
Assay type: cell-based
Settings: THP-1 cells differentiated with LPS and IFN-γ; 30 min pretreatment; BzATP 250 uM; IL-1β by ELISA
Protocol: THP-1 cells (ATCC Cat #285-IF-100) are plated in 96 well plates at a concentration of 200,000 cells per well and allowed to differentiate in RPMI-1640 media (ATCC Cat #30-2001) containing 10% FBS, 100 IU/mL penicillin, 100 ug/mL streptomycin, 100 ng/mL LPS and 100 ng/mL IFN-γ for 16 hours. Following differentiation, the cells are treated for an additional 2 hours in RPMI-1640 media containing 100 IU/mL penicillin, 100 ug/mL streptomycin and fresh LPS at 100 ng/mL. The cells are then pretreated for 30 minutes with the compound of interest at the appropriate concentration in RPMI media containing 100 IU/mL penicillin, 100 ug/mL streptomycin. Following the pretreatment 2′,3′-O-(4-benzoylbenzoyl)-adenosine 5′-triphosphate (Sigma Aldrich Cat # B6396) is added to a final concentration of 250 uM, and the cells are incubated for an additional 45 minutes. 30 uL of cell supernatant is then collected and IL-1β levels are determined via ELISA (R&D systems Cat. # HSLB50) according to manufacturer's recommendations using a Tecan Safire plate reader. Background adjusted IL-1β levels of drug treated and non-treated cells are used to calculate the percent inhibition.
The following compounds have been or can be prepared according to the synthetic methods described herein for example, methods A-AA1. The compounds set forth in Table 1 were tested for activity in a cellular model as described herein. Specifically, cells were pretreated with differing amounts of the compound under test and released IL-1β determined as in Example 9, above. Measurements were made and IC50 values, presented in Table 1, below, were determined by fitting the data to a four parameter logistic equation using GraphPad Prism software (GraphPad Software, Inc). The equation may be expressed by the following formula: Y=Bottom+(Top−Bottom)/(1+10^((Log EC50−X)*HillSlope)) where X is the logarithm of concentration, Y is the response and Y starts at Bottom and goes to Top with a sigmoid shape.

Row | IC50 | Compound
1 | 532 nM | C[C@H](CO)n1ccc2c(C(=O)NCC3(O)CC4CCC3C4)c(Cl)ccc2c1=O (stereo partly drawn) [Compound 53, 6-Chloro-2-((R)-2-hydroxy-1-methyl-ethyl)-1-oxo-1,2-dihydro-isoquinoline-5-carboxylic acid (2-hydroxy-bicyclo[2.2.1]hept-2-ylmethyl)-amide]
2 | 18 nM | C[C@H](C(=O)Nc1c(Cl)ccc2c(=O)n([C@H](C)C(N)=O)ccc12)c1ccc(Cl)cc1 [Compound 4, (R)-2-{6-Chloro-5-[(S)-2-(4-chloro-phenyl)-propionylamino]-1-oxo-1H-isoquinolin-2-yl}-propionamide]
3 | 500 nM | C[C@H](CO)n1ccc2c(C(=O)NCc3ccccc3C(F)(F)F)c(Cl)ccc2c1=O [Compound 46, 6-Chloro-2-((R)-2-hydroxy-1-methyl-ethyl)-1-oxo-1,2-dihydro-isoquinoline-5-carboxylic acid 2-trifluoromethyl-benzylamide]
4 | 2 nM | Cc1ccc2c(=O)n([C@H](C)CO)ccc2c1NC(=O)Cc1cccc(C(F)(F)F)c1 [Compound 35, N-[2-((R)-2-Hydroxy-1-methyl-ethyl)-6-methyl-1-oxo-1,2-dihydro-isoquinolin-5-yl]-2-(3-trifluoromethyl-phenyl)-acetamide]
5 | 3 nM | Cc1ccc2c(=O)n([C@H](C)CO)ccc2c1C(=O)NCc1ccc(Cl)c(F)c1 [Compound 50, 2-((R)-2-Hydroxy-1-methyl-ethyl)-6-methyl-1-oxo-1,2-dihydro-isoquinoline-5-carboxylic acid 4-chloro-3-fluoro-benzylamide]
6 | 23 nM | C[C@@H](CO)n1ccc2c(NC(=O)Cc3ccc(C(F)(F)F)c(F)c3)c(Cl)ccc2c1=O [Compound 34, N-[6-Chloro-2-((S)-2-hydroxy-1-methyl-ethyl)-1-oxo-1,2-dihydro-isoquinolin-5-yl]-2-(3-fluoro-4-trifluoromethyl-phenyl)-acetamide]
7 | 13 nM | C[C@H](CO)n1ccc2c(NC(=O)Cc3ccc(Cl)c(Cl)c3)c(Cl)ccc2c1=O [Compound 12, N-[6-Chloro-2-((R)-2-hydroxy-1-methyl-ethyl)-1-oxo-1,2-dihydro-isoquinolin-5-yl]-2-(3,4-dichloro-phenyl)-acetamide]
8 | 0.01 nM | Cc1ccc2c(=O)n([C@H](C)CN)ccc2c1NC(=O)Cc1ccc(C(F)(F)F)c(F)c1 [Compound 58, N-[2-((R)-2-Amino-1-methyl-ethyl)-6-methyl-1-oxo-1,2-dihydro-isoquinolin-5-yl]-2-(3-fluoro-4-trifluoromethyl-phenyl)-acetamide]
9 | 43 nM | CNCCn1ccc2c(NC(=O)Cc3ccc(C(F)(F)F)c(F)c3)c(C)ccc2c1=O [Compound 38, 2-(3-Fluoro-4-trifluoromethyl-phenyl)-1-[6-methyl-2-(2-methylamino-ethyl)-1-oxo-1,2-dihydroisoquinolin-5-yl]-acetamide]
10 | 310 nM | C[C@H](CO)n1ccc2c(C(=O)NCc3ccc(C(F)(F)F)nc3)c(Cl)ccc2c1=O [Compound 43, 6-Chloro-2-((R)-2-hydroxy-1-methyl-ethyl)-1-oxo-1,2-dihydro-isoquinoline-5-carboxylic acid (6-trifluoromethyl-pyridin-3-ylmethyl)-amide]
11 | 5 nM | C[C@H](CO)n1ccc2c(C(=O)NCC3(O)CCCCC3)c(Cl)ccc2c1=O [Compound 57, 6-Chloro-2-((R)-2-hydroxy-1-methyl-ethyl)-1-oxo-1,2-dihydro-isoquinoline-5-carboxylic acid (1-hydroxy-cyclohexylmethyl)-amide]
12 | 1670 nM | O=C(Cc1cccc(C(F)(F)F)c1F)Nc1c(NCCO)ccc2c(=O)n(CCO)ccc12 [Compound 18, 2-(2-Fluoro-3-trifluoromethyl-phenyl)-N-[2-(2-hydroxy-ethyl)-6-(2-hydroxy-ethylamino)-1-oxo-1,2-dihydro-isoquinolin-5-yl]-acetamide]
13 | 65 nM | Cc1ccc2c(=O)n(CCO)ccc2c1NC(=O)Cc1cccc(C(F)(F)F)c1F [Compound 24, 2-(2-Fluoro-3-trifluoromethyl-phenyl)-N-[2-(2-hydroxy-ethyl)-6-methyl-1-oxo-1,2-dihydro-isoquinolin-5-yl]-acetamide]
14 | 53 nM | Cc1ccc2c(=O)n([C@@H](C)CO)ccc2c1NC(=O)Cc1ccc(C(F)(F)F)c(F)c1 [Compound 33, (S)-2-(3-fluoro-4-(trifluoromethyl)phenyl)-N-(2-(1-hydroxypropan-2-yl)-6-methyl-1-oxo-1,2-dihydroisoquinolin-5-yl)acetamide]
15 | 2 nM | CNC[C@@H](C)n1ccc2c(NC(=O)Cc3ccc(C(F)(F)F)c(F)c3)c(C)ccc2c1=O [Compound 59, 2-(3-Fluoro-4-trifluoromethyl-phenyl)-N-[6-methyl-2-((R)-1-methyl-2-methylamino-ethyl)-1-oxo-1,2-dihydro-isoquinolin-5-yl]-acetamide]
16 | 9 nM | C[C@H](CO)n1ccc2c(NC(=O)Cc3ccc(C(F)(F)F)c(F)c3)c(C3CC3)ccc2c1=O [Compound 17, N-[6-Cyclopropyl-2-((R)-2-hydroxy-1-methyl-ethyl)-1-oxo-1,2-dihydro-isoquinolin-5-yl]-2-(3-fluoro-4-trifluoromethyl-phenyl)-acetamide]
17 | 7 nM | Cc1ccc2c(=O)n(CCO)ccc2c1NC(=O)Cc1ccc(F)c(C(F)(F)F)c1 [Compound 27, 2-(4-Fluoro-3-trifluoromethyl-phenyl)-N-[2-(2-hydroxy-ethyl)-6-methyl-1-oxo-1,2-dihydro-isoquinolin-5-yl]-acetamide]
18 | 6 nM | C[C@H](CO)n1ccc2c(C(=O)NCC3(O)CCC(F)CC3)c(Cl)ccc2c1=O (stereo partly drawn) [Compound 69]
19 | 42 nM | Cc1ccc2c(=O)n([C@H](C)CO)ccc2c1NC(=O)CC1(O)CCCCCC1 [Compound 37, 2-(1-Hydroxy-cycloheptyl)-N-[2-((R)-2-hydroxy-1-methyl-ethyl)-6-methyl-1-oxo-1,2-dihydroisoquinolin-5-yl]-acetamide]
20 | 63 nM | O=C(Cc1cccc(C(F)(F)F)c1F)Nc1c(Cl)ccc2c(=O)n(CCO)ccc12 [Compound 20, N-[6-Chloro-2-(2-hydroxy-ethyl)-1-oxo-1,2-dihydro-isoquinolin-5-yl]-2-(2-fluoro-3-trifluoromethyl-phenyl)-acetamide]
21 | 31 nM | C[C@H](CO)n1ccc2c(NC(=O)Cc3ccc(C(F)(F)F)cc3F)c(Cl)ccc2c1=O [Compound 14, N-[6-Chloro-2-((R)-2-hydroxy-1-methyl-ethyl)-1-oxo-1,2-dihydro-isoquinolin-5-yl]-2-(2-fluoro-4-trifluoromethyl-phenyl)-acetamide]
22 | 4 nM | Cc1ccc2c(=O)n([C@H](C)CO)ccc2c1C(=O)NCC1(O)CCCCCC1 [Compound 52, 2-((R)-2-Hydroxy-1-methyl-ethyl)-6-methyl-1-oxo-1,2-dihydro-isoquinoline-5-carboxylic acid (1-hydroxy-cycloheptylmethyl)-amide]
23 | 439 nM | COc1ccc2c(=O)n([C@H](C)CO)ccc2c1NC(=O)Cc1ccc(C(F)(F)F)c(F)c1 [Compound 9, 2-(3-Fluoro-4-trifluoromethyl-phenyl)-N-[2-((R)-2-hydroxy-1-methyl-ethyl)-6-methoxy-1-oxo-1,2-dihydro-isoquinolin-5-yl]-acetamide]

Row | Compound | IC50
24 | C[C@@H](C(N)=O)n1ccc2c(NC(=O)Cc3ccc(C(F)(F)F)cc3)c(Cl)ccc2c1=O [Compound 8, (S)-2-{6-Chloro-1-oxo-5-[2-(4-trifluoromethyl-phenyl)-acetylamino]-1H-isoquinolin-2-yl}-propionamide] | 113 nM
